Assay results as given in ChEMBL document CHEMBL1135277, “Beta-carbolines as specific inhibitors of cyclin-dependent kinases” (Bioorg Med Chem Lett, 2002).

Key:
[1] = target: Cyclin-dependent kinase 2 (Homo sapiens) (UniProt P24941); experiment: Percentage inhibition against cyclin dependent kinase 2 (CDK 2) at a concentration of 50 uM
[2] = target: Cyclin-dependent kinase 2/cyclin A (Homo sapiens, UniProt P24941); experiment: Inhibition of Cyclin-dependent kinase 2-cyclin A; assay type: protein-complex assay
[3] = target: Tyrosine-protein kinase Lyn (Homo sapiens, UniProt P07948); experiment: Inhibition of Lyn tyrosine kinase
Protein kinase C (PKC) = experiment: Inhibition of protein kinase C; assay type: protein assay
[4] = target: Cyclin-dependent kinase 5/CDK5 activator 1 (Homo sapiens, UniProt Q00535); experiment: Inhibition of Cyclin-dependent kinase 5-p35nck5a; assay type: protein-complex assay
[5] = target: Tyrosine-protein kinase Fyn (Homo sapiens, UniProt P06241); experiment: Inhibition of Fyn kinase
[6] = target: Cyclin-dependent kinase 1/cyclin B (Homo sapiens, UniProt P06493); experiment: Inhibition of Cell division cycle 2 (CDK1)-cyclin B; assay type: protein-complex assay
[7] = Inhibition of Mitogen-activated protein kinase
[8] = target: Tyrosine-protein kinase Lck (Homo sapiens, UniProt P06239); experiment: Inhibition of p56 Lck tyrosine kinase
Chain of Tyrosine-protein kinase Lck (P06239 whole entry): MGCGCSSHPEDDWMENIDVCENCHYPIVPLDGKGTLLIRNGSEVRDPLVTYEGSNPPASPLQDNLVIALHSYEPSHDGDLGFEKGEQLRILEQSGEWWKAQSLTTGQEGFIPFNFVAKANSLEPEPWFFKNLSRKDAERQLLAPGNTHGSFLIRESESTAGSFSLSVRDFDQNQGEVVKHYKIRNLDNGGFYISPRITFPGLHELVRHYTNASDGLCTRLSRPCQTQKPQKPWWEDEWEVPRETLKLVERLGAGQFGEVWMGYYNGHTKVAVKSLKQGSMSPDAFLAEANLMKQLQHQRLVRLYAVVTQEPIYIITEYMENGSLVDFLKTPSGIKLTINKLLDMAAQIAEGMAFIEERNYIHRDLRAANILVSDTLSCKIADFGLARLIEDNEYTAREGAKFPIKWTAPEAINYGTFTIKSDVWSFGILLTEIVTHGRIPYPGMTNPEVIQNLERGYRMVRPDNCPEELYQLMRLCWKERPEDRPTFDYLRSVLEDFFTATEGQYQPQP

Chain of Tyrosine-protein kinase Fyn (P06241 whole entry): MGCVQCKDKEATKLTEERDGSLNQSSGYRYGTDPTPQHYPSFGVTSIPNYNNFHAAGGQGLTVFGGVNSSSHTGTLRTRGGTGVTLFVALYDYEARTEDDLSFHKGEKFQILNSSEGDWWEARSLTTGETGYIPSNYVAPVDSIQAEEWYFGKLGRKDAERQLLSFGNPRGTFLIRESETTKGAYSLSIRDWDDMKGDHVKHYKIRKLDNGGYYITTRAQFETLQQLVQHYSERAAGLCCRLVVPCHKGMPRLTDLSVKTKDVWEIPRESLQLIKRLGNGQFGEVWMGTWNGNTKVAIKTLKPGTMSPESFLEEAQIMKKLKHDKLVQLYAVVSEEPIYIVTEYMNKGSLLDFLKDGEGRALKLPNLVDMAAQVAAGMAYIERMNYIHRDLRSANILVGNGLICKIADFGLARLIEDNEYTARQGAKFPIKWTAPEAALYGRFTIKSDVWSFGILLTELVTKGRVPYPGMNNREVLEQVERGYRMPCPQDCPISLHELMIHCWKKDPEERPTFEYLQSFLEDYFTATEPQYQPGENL
Chain of Tyrosine-protein kinase Lyn (P07948 whole entry): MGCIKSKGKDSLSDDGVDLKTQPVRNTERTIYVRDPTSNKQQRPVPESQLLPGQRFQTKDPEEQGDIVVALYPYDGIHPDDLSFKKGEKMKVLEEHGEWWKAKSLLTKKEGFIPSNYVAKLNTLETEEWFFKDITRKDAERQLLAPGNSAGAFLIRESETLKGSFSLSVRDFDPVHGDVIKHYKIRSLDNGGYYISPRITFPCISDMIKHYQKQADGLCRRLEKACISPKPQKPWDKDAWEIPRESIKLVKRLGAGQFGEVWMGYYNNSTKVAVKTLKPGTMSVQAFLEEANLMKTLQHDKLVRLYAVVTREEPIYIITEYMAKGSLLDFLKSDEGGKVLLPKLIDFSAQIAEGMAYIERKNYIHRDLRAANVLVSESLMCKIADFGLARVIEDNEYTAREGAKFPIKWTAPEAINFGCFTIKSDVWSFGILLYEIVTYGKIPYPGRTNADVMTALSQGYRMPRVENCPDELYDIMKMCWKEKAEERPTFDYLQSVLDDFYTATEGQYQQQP
Chain of Cyclin-dependent kinase 5/CDK5 activator 1 (Q00535 whole entry): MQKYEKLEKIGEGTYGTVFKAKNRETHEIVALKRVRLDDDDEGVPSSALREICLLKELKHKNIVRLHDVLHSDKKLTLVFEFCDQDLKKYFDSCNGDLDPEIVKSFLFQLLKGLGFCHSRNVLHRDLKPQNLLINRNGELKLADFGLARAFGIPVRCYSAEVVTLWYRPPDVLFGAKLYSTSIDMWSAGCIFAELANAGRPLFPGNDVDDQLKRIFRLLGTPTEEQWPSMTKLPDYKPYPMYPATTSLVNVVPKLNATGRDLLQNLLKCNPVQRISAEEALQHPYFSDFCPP
Chain of Cyclin-dependent kinase 5/CDK5 activator 1 (Q15078 whole entry, further chain): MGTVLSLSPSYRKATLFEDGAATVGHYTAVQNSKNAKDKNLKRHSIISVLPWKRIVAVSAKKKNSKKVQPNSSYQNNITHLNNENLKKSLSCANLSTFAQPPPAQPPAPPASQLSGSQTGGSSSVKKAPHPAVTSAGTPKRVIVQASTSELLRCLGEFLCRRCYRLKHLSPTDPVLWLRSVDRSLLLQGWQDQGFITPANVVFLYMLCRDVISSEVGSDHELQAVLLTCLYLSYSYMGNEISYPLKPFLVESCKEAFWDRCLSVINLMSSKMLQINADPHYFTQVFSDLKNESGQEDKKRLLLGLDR

Row | Compound | inhibition [1] [%] | further results
1 | Cc1nccc2c1[nH]c1cc(Oc3ncc(C(F)(F)F)cc3Cl)ccc12 | 10 | –
2 | COc1cccc(-c2[nH]ccc3c4ccccc4nc2-3)c1 | 5 | –
3 | CC(=O)OCCOc1ccc2c(c1)[nH]c1c(C)nccc12 | 23 | –
4 | COc1ccc2[nH]c3c(C)nccc3c2c1 | 2 | –
5 | Cc1[nH]cnc1-c1[nH]ccc2c3ccc(F)cc3nc1-2 | 51 | –
6 | Clc1cccc(-c2nccc3c2[nH]c2ccccc23)c1 | 32 | –
7 | O=[N+]([O-])c1ccc(-c2[nH]ccc3c4ccccc4nc2-3)cc1 | 31 | –
8 | O=[N+]([O-])c1ccc(Cl)c(-c2[nH]ccc3c4ccccc4nc2-3)c1 | 70 | IC50 [2]: 22 µM; IC50 [3]: > 250 µM; IC50 (Protein kinase C (PKC)): > 250 µM; IC50 [4]: > 1200 µM; IC50 [5]: > 250 µM; IC50 [6]: 45 µM
9 | COc1ccc2c(c1)[nH]c1c(C)nccc12 [HARMINE] | 62 | IC50 [2]: 35 µM; IC50 [3]: > 250 µM; IC50 (Protein kinase C (PKC)): > 250 µM; IC50 [7]: > 250 µM; IC50 [8]: > 250 µM; IC50 [5]: > 250 µM
10 | CCc1nccc2c1[nH]c1cc(F)ccc12 | 54 | –
11 | Cc1nccc2c1[nH]c1cc(OCCOC(=O)c3ccccc3)ccc12 | 13 | –
12 | Fc1ccc2c(c1)[nH]c1c(-c3ccccc3F)nccc12 | 55 | –
13 | CC(C)c1nccc2c1[nH]c1ccccc12 | 44 | –
14 | N#Cc1ccccc1-c1[nH]ccc2c3ccccc3nc1-2 | 8 | –
15 | Clc1ccc(-c2nccc3c2[nH]c2ccccc23)cc1 | 48 | –
16 | Cc1nccc2c1[nH]c1ccc(OC(=O)c3ccccc3)cc12 | 2 | –
17 | Clc1ccccc1-c1[nH]ccc2c3ccccc3nc1-2 | 69 | –
18 | O=[N+]([O-])c1ccc(-c2[nH]ccc3c4ccccc4nc2-3)cc1Cl | 4 | –
19 | Cc1nccc2c1[nH]c1ccccc12 | 47 | –
20 | O=[N+]([O-])c1cccc(-c2[nH]ccc3c4ccccc4nc2-3)c1 | 19 | –
21 | Cc1nccc2c1[nH]c1cc(OCC(=O)OCc3ccccc3)ccc12 | 57 | –

Row | Compound | inhibition [1] [%] | further results
22 | Cc1nccc2c1[nH]c1ccc(F)cc12 | 46 | –
23 | Cc1[nH]cnc1-c1nccc2c1[nH]c1ccccc12 | 89 | IC50 [2]: 6 µM; IC50 [3]: > 250 µM; IC50 (Protein kinase C (PKC)): > 250 µM; IC50 [7]: > 250 µM; IC50 [5]: > 250 µM; IC50 [6]: 25 µM
24 | Cc1nccc2c1[nH]c1cc(OCCO)ccc12 | 4 | –
25 | Fc1ccc(-c2[nH]ccc3c4ccccc4nc2-3)c(F)c1 | 56 | –
26 | Cc1nccc2c1[nH]c1cccc(C)c12 | 30 | –
27 | CCOc1ccc2c(c1)[nH]c1c(C)nccc12 | 43 | –
28 | COc1ccc2[nH]c3c(C(=O)O)nccc3c2c1 | 12 | –
29 | FC(F)(F)c1[nH]ccc2c3ccccc3nc1-2 | 39 | –
30 | Brc1ccccc1-c1[nH]ccc2c3ccccc3nc1-2 | 10 | –
31 | Cc1nccc2c1[nH]c1cc(OCCC3(C)OCC(C)(C)CO3)ccc12 | 27 | –
32 | CCCc1ncc(N)c2c1[nH]c1ccccc12 | 22 | –
33 | O=[N+]([O-])c1ccccc1-c1[nH]ccc2c3ccccc3nc1-2 | 43 | –
34 | CCCCOc1ccc2c(c1)[nH]c1c(C)nccc12 | 50 | –
35 | Fc1ccccc1-c1[nH]ccc2c3ccccc3nc1-2 | 64 | –
36 | N#Cc1ccc(-c2nccc3c2[nH]c2ccccc23)cc1 | 29 | –
37 | Fc1cccc(-c2nccc3c2[nH]c2ccccc23)c1 | 6 | –
38 | Cc1ccc2c(c1)[nH]c1c(C)nccc12 | 23 | –
39 | COc1ccc(-c2nccc3c2[nH]c2ccccc23)cc1 | 6 | –
40 | Cc1ccc2c(c1)[nH]c1c(-c3ccccc3F)nccc12 | 36 | –
41 | Cc1nccc2c1[nH]c1cc(OC(=O)NC3CCCCC3)ccc12 | 53 | –
42 | CC1=NCCc2c1[nH]c1cc(O)ccc21 | 13 | –

Row | Compound | inhibition [1] [%] | further results
43 | N#Cc1cccc(-c2nccc3c2[nH]c2ccccc23)c1 | 31 | –
44 | Fc1ccc(-c2nccc3c2[nH]c2ccccc23)cc1 | 20 | –
45 | COc1ccc2c3c([nH]c2c1)C(C)=NCC3 | 10 | –
46 | CCCc1nccc2c1[nH]c1cc(F)ccc12 | 60 | –
47 | Cc1ccc(-c2[nH]ccc3c4ccccc4nc2-3)c(C)c1 | 5 | –
48 | Cc1[nH]ccc2c1[nH]c1cc(=O)ccc12 | 69 | –
49 | Cc1nccc2c1[nH]c1cc(OCC(N)=O)ccc12 | 15 | –
50 | CCCc1nccc2c1[nH]c1ccccc12 | 43 | –
51 | c1ccc(-c2nccc3c2[nH]c2ccccc23)cc1 | 13 | –
52 | COC(=O)Cc1nccc2c1[nH]c1ccccc12 | 11 | –
53 | CC(C)(C)c1[nH]ccc2c3ccccc3nc1-2 | 50 | –
54 | Cc1nccc2c1[nH]c1cccc(F)c12 | 55 | –
55 | Fc1ccc2c(c1)[nH]c1c(-c3ccccc3)nccc12 | 57 | –
56 | Cc1nccc2c1[nH]c1cc(OCCN3C(=O)c4ccccc4C3=O)ccc12 | 8 | –
57 | c1ccc2c(c1)[nH]c1c(-c3c[nH]cn3)nccc12 | 30 | –
58 | CCOC(COc1ccc2c(c1)[nH]c1c(C)nccc12)OCC | 1 | –
59 | c1ccc2c(c1)[nH]c1cnccc12 | 37 | –
60 | Cc1ccc2[nH]c3c(C)nccc3c2c1 | 15 | –
61 | CCCNC(=O)Oc1ccc2c(c1)[nH]c1c(C)nccc12 | 61 | –
62 | Cc1nccc2c1[nH]c1cc(F)ccc12 | 65 | IC50 [2]: 30 µM; IC50 [3]: > 250 µM; IC50 (Protein kinase C (PKC)): > 250 µM; IC50 [7]: > 250 µM; IC50 [8]: > 250 µM; IC50 [5]: > 250 µM; IC50 [6]: 42 µM
